The source of these data is patent US9556179B2 (BRISTOL-MYERS SQUIBB COMPANY, priority 2012, dated 2017).

One may read the IC50 as the concentration at which inhibition is half-maximal. Higher therefore signals weaker potency in that assay.

Assay [1] addresses CK1ε (Homo sapiens (Human), UniProt P49674). The experiment in a line: CK1ε kinase assay (Caliper LABCHIP electrophoretic separation of fluoresceinated peptide substrate and product). The format is biochemical. As to conditions: 200 pM enzyme, 50 μM ATP, 22 hours at room temperature. As to the method: (§1) CK1ε and CK1δ Kinase Assays
(§2) The kinase assay was performed in V-bottom 384-well plates. […] The reaction was incubated at room temperature for 22 hours and terminated by adding 45 μl of 35 mM EDTA to each sample. The reaction mixture was analyzed on the Caliper LABCHIP®3000 (Caliper, Hopkinton, Mass.) by electrophoretic separation of the unphosphorylated substrate and phosphorylated product. […] Compounds were dissolved at 10 mM in dimethylsulfoxide (DMSO) and evaluated at eleven concentrations. IC50 values were derived by non-linear regression analysis.

The target of assay [2] is CK1δ (Homo sapiens (Human), UniProt P48730). The experiment in a line: CK1δ kinase assay (Caliper LABCHIP electrophoretic separation of fluoresceinated peptide substrate and product). It is filed as biochemical. As to conditions: 200 pM enzyme, 50 μM ATP, 22 hours at room temperature. As for the experimental part: as §1, §2
Chain of CK1δ (P48730 whole entry): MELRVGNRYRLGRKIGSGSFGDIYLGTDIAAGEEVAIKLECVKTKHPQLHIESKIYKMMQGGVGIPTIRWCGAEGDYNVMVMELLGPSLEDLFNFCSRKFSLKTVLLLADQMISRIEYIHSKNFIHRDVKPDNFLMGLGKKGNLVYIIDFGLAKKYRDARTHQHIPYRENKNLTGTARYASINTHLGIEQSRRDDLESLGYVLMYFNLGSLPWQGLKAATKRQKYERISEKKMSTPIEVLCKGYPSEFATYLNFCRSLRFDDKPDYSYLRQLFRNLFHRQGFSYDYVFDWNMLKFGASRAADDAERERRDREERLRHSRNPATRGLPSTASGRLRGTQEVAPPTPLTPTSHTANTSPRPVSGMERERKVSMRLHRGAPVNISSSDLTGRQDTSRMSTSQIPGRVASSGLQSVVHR

Chain of CK1ε (P49674 whole entry): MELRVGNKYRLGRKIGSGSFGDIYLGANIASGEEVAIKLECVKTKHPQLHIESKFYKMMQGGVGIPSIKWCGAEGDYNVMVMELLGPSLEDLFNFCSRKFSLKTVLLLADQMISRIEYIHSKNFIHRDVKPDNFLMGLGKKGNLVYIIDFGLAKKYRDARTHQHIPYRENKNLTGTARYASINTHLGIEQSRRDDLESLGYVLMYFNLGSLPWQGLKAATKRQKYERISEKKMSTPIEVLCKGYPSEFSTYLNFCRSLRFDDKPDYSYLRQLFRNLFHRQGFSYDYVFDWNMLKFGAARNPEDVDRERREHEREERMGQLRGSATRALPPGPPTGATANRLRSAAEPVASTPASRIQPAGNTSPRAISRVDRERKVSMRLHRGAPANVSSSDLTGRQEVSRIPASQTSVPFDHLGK

Consider `O=C(Nc1cn2nc(-c3c(-c4ccc(F)cc4)ncn3C3CCN(CC4C[C@@H]5CC[C@H]4C5)CC3)ccc2n1)c1ccnc(F)c1` (stereo partly drawn) [Compound 31, N-(6-(1-(1-((1S,4R)-bicyclo[2.2.1]heptan-2-ylmethyl)piperidin-4-yl)-4-(4-fluorophenyl)-1H-imidazol-5-yl)imidazo[1,2-6]pyridazin-2-yl)-2-fluoroisonicotinamide], for which the IC50 in assay [1] came out at 11.2 nM; in assay [2] it was 0.742 nM.

As to `CC(C)CCN1CCC(n2cnc(-c3ccc(F)cc3)c2-c2ccc3nc(NC(=O)c4ccnc(F)c4)cn3n2)CC1` [Compound 32, 2-fluoro-N-(6-(4-(4-fluorophenyl)-1-(1-isopentylpiperidin-4-yl)-1H-imidazol-5-yl)imidazo[1,2-b]pyridazin-2-yl)isonicotinamide], the results for the IC50 in assay [1] and in assay [2] were 10.7 nM and 0.602 nM, respectively.

Regarding `O=C(Nc1cn2nc(-c3c(-c4ccc(F)cc4)ncn3C3CCN(CCCF)CC3)ccc2n1)c1ccnc(F)c1` [Compound 33, 2-fluoro-N-(6-(4-(4-fluorophenyl)-1-(1-(3-fluoropropyl)piperidin-4-yl)-1H-imidazol-5-yl)imidazo[1,2-b]pyridazin-2-yl)isonicotinamide], the values for the IC50 in assay [1] and in assay [2] were 1.9 nM and 0.378 nM, respectively.

As for `COCCN1CCC(n2cnc(-c3ccc(F)cc3)c2-c2ccc3nc(NC(=O)c4ccnc(F)c4)cn3n2)CC1` [Compound 34, 2-fluoro-N-(6-(4-(4-fluorophenyl)-1-(1-(2-methoxyethyl)piperidin-4-yl)-1H-imidazol-5-yl)imidazo[1,2-b]pyridazin-2-yl)isonicotinamide], the figures for the concentration for half-maximal inhibition (IC50) in assay [1] and in assay [2] were 12.4 nM and 0.136 nM, respectively.

Take `O=C(Nc1cn2nc(-c3c(-c4ccc(F)cc4)ncn3C3CCN(CC(F)(F)F)CC3)ccc2n1)c1ccnc(F)c1` [Compound 35, 2-fluoro-N-(6-(4-(4-fluorophenyl)-1-(1-(2,2,2-trifluoroethyl)piperidin-4-yl)-1H-imidazol-5-yl)imidazo[1,2-6]pyridazin-2-yl)isonicotinamide]: the values for the 50% inhibitory concentration (IC50) in assay [1] and in assay [2] were 7.22 nM and 0.527 nM, respectively.

With `N#CCCN1CCC(n2cnc(-c3ccc(F)cc3)c2-c2ccc3nc(NC(=O)c4ccnc(F)c4)cn3n2)CC1` [Compound 36, N-(6-(1-(1-(2-cyanoethyl)piperidin-4-yl)-4-(4-fluorophenyl)-1H-imidazol-5-yl)imidazo[1,2-b]pyridazin-2-yl)-2-fluoroisonicotinamide], the figures for the half-maximal inhibitory concentration (IC50) in assay [1] and in assay [2] were 1.58 nM and 0.197 nM, respectively.

For the compound `O=C(Nc1cn2nc(-c3c(-c4ccc(F)cc4)ncn3C3CCN(C[C@@H](O)C(F)(F)F)CC3)ccc2n1)c1ccnc(F)c1` [Compound 37, (R)-2-fluoro-N-(6-(4-(4-fluorophenyl)-1-(1-(3,3,3-trifluoro-2-hydroxypropyl)piperidin-4-yl)-1H-imidazol-5-yl)imidazo[1,2-b]pyridazin-2-yl)isonicotinamide], the half-maximal inhibitory concentration (IC50) in assay [1] turned out to be 1.27 nM; in assay [2], 0.296 nM.

Turning to `O=C(Nc1cn2nc(-c3c(-c4ccc(F)cc4)ncn3C3CCN(C[C@H](O)C(F)(F)F)CC3)ccc2n1)c1ccnc(F)c1` [Compound 38, (S)-2-fluoro-N-(6-(4-(4-fluorophenyl)-1-(1-(3,3,3-trifluoro-2-hydroxypropyl)piperidin-4-yl)-1H-imidazol-5-yl)imidazo[1,2-b]pyridazin-2-yl)isonicotinamide], the IC50 came to 0.305 nM in assay [1] and 0.292 nM in assay [2].

Take `O=C(Nc1cn2nc(-c3c(-c4ccc(F)cc4)ncn3C3CCN(C(=O)c4ccon4)CC3)ccc2n1)c1ccnc(F)c1` [Compound 39, 2-fluoro-N-(6-(4-(4-fluorophenyl)-1-(1-(isoxazole-3-carbonyl)piperidin-4-yl)-1H-imidazol-5-yl)imidazo[1,2-b]pyridazin-2-yl)isonicotinamide]: the values for the half-maximal inhibitory concentration (IC50) in assay [1] and in assay [2] were 2.22 nM and 1.93 nM, respectively.

`NCC(=O)N1CCC(n2cnc(-c3ccc(F)cc3)c2-c2ccc3nc(NC(=O)c4ccnc(F)c4)cn3n2)CC1` [Compound 40, N-(6-(1-(1-(2-aminoacetyl)piperidin-4-yl)-4-(4-fluorophenyl)-1H-imidazol-5-yl)imidazo[1,2-b]pyridazin-2-yl)-2-fluoroisonicotinamide]: the IC50 came to 0.984 nM in assay [1] and 0.085 nM in assay [2].

As for `O=C(Nc1cn2nc(-c3c(-c4ccc(F)cc4)ncn3C3CCN(C(=O)CC(F)(F)F)CC3)ccc2n1)c1ccnc(F)c1` [Compound 42, 2-fluoro-N-(6-(4-(4-fluorophenyl)-1-(1-(3,3,3-trifluoropropanoyl)piperidin-4-yl)-1H-imidazol-5-yl)imidazo[1,2-b]pyridazin-2-yl)isonicotinamide], the IC50 in assay [1] is 2.93 nM; in assay [2], 2.79 nM.

On to `O=C(Nc1cn2nc(-c3c(-c4ccc(F)cc4)ncn3C3CCN(C(=O)c4cscn4)CC3)ccc2n1)c1ccnc(F)c1` [Compound 44, 2-fluoro-N-(6-(4-(4-fluorophenyl)-1-(1-(thiazole-4-carbonyl)piperidin-4-yl)-1H-imidazol-5-yl)imidazo[1,2-b]pyridazin-2-yl)isonicotinamide], for which the half-inhibitory concentration (IC50) in assay [1] came out at 1.23 nM; in assay [2], 0.295 nM.

For the compound `O=C(Nc1cn2nc(-c3c(-c4ccc(F)cc4)ncn3C3CCN(C(=O)c4cc(C5CC5)on4)CC3)ccc2n1)c1ccnc(F)c1` [Compound 45, N-(6-(1-(1-(5-cyclopropylisoxazole-3-carbonyl)piperidin-4-yl)-4-(4-fluorophenyl)-1H-imidazol-5-yl)imidazo[1,2-b]pyridazin-2-yl)-2-fluoroisonicotinamide], the IC50 in assay [1] amounted to 16.4 nM; in assay [2], 1.98 nM.

Turning to `N#CCC(=O)N1CCC(n2cnc(-c3ccc(F)cc3)c2-c2ccc3nc(NC(=O)c4ccnc(F)c4)cn3n2)CC1` [Compound 46, N-(6-(1-(1-(2-cyanoacetyl)piperidin-4-yl)-4-(4-fluorophenyl)-1H-imidazol-5-yl)imidazo[1,2-b]pyridazin-2-yl)-2-fluoroisonicotinamide], the 50% inhibitory concentration (IC50) in assay [1] turned out to be 0.743 nM; in assay [2] it was 0.198 nM.

Consider `COCC(=O)N1CCC(n2cnc(-c3ccc(F)cc3)c2-c2ccc3nc(NC(=O)c4ccnc(F)c4)cn3n2)CC1` [Compound 47, 2-fluoro-N-(6-(4-(4-fluorophenyl)-1-(1-(2-methoxyacetyl)piperidin-4-yl)-1H-imidazol-5-yl)imidazo[1,2-b]pyridazin-2-yl)isonicotinamide], for which the values for the half-maximal inhibitory concentration (IC50) in assay [1] and in assay [2] were 1.1 nM and 0.225 nM, respectively.

Turning to `O=C(Nc1cn2nc(-c3c(-c4ccc(F)cc4)ncn3C3CCN(C(=O)c4ccno4)CC3)ccc2n1)c1ccnc(F)c1` [Compound 48, 2-fluoro-N-(6-(4-(4-fluorophenyl)-1-(1-(isoxazole-5-carbonyl)piperidin-4-yl)-1H-imidazol-5-yl)imidazo[1,2-b]pyridazin-2-yl)isonicotinamide], the IC50 is 1.45 nM in assay [1] and 0.22 nM in assay [2].

For `O=C(Nc1cn2nc(-c3c(-c4ccc(F)cc4)ncn3C3CCN(C(=O)C4(C(F)(F)F)CCC4)CC3)ccc2n1)c1ccnc(F)c1` [Compound 49, 2-fluoro-N-(6-(4-(4-fluorophenyl)-1-(1-(1-(trifluoromethyl)cyclobutanecarbonyl)piperidin-4-yl)-1H-imidazol-5-yl)imidazo[1,2-b]pyridazin-2-yl)isonicotinamide], the IC50 in assay [1] was determined as 7.33 nM; in assay [2], 1.06 nM.

Regarding `O=C(Nc1cn2nc(-c3c(-c4ccc(F)cc4)ncn3C3CCN(C(=O)c4ccsn4)CC3)ccc2n1)c1ccnc(F)c1` [Compound 50, 2-fluoro-N-(6-(4-(4-fluorophenyl)-1-(1-(isothiazole-3-carbonyl)piperidin-4-yl)-1H-imidazol-5-yl)imidazo[1,2-b]pyridazin-2-yl)isonicotinamide], the half-inhibitory concentration (IC50) in assay [1] stood at 1.1 nM; in assay [2] it was 0.278 nM.

Regarding `Cc1cc(C(=O)N2CCC(n3cnc(-c4ccc(F)cc4)c3-c3ccc4nc(NC(=O)c5ccnc(F)c5)cn4n3)CC2)no1` [Compound 51, 2-fluoro-N-(6-(4-(4-fluorophenyl)-1-(1-(5-methylisoxazole-3-carbonyl)piperidin-4-yl)-1H-imidazol-5-yl)imidazo[1,2-b]pyridazin-2-yl)isonicotinamide], the IC50 in assay [1] turned out to be 2.58 nM; in assay [2], 0.24 nM.

Turning to `N#Cc1ccc(C(=O)N2CCC(n3cnc(-c4ccc(F)cc4)c3-c3ccc4nc(NC(=O)c5ccnc(F)c5)cn4n3)CC2)cc1` [Compound 52, N-(6-(1-(1-(4-cyanobenzoyl)piperidin-4-yl)-4-(4-fluorophenyl)-1H-imidazol-5-yl)imidazo[1,2-b]pyridazin-2-yl)-2-fluoroisonicotinamide], the figures for the half-inhibitory concentration (IC50) in assay [1] and in assay [2] were 1.44 nM and 0.347 nM, respectively.

`O=C(Nc1cn2nc(-c3c(-c4ccc(F)cc4)ncn3C3CCN(C(=O)c4ccc(F)cc4)CC3)ccc2n1)c1ccnc(F)c1` [Compound 53, 2-fluoro-N-(6-(1-(1-(4-fluorobenzoyl)piperidin-4-yl)-4-(4-fluorophenyl)-1H-imidazol-5-yl)imidazo[1,2-b]pyridazin-2-yl)isonicotinamide]: the IC50 in assay [1] was determined as 1.56 nM; in assay [2], 0.191 nM.

In the case of `CC(C)(C)C(=O)N1CCC(n2cnc(-c3ccc(F)cc3)c2-c2ccc3nc(NC(=O)c4ccnc(F)c4)cn3n2)CC1` [Compound 54, 2-fluoro-N-(6-(4-(4-fluorophenyl)-1-(1-pivaloylpiperidin-4-yl)-1H-imidazol-5-yl)imidazo[1,2-b]pyridazin-2-yl)isonicotinamide], the IC50 in assay [1] was determined as 3.09 nM; in assay [2], 0.446 nM.

For `CC(C)(O)C(=O)N1CCC(n2cnc(-c3ccc(F)cc3)c2-c2ccc3nc(NC(=O)c4ccnc(F)c4)cn3n2)CC1` [Compound 55, 2-fluoro-N-(6-(4-(4-fluorophenyl)-1-(1-(2-hydroxy-2-methylpropanoyl)piperidin-4-yl)-1H-imidazol-5-yl)imidazo[1,2-b]pyridazin-2-yl)isonicotinamide], the 50% inhibitory concentration (IC50) in assay [1] amounted to 1.05 nM; in assay [2] it was 0.178 nM.
